From patent US12624040B2, “Compositions of substituted pyrazolopyrimidines and uses thereof” (KSQ Therapeutics, Inc., priority 2020, dated 2026)

Experiments:
[1] = Aqueous solubility / BCS classification; assay type: physicochemical; conditions: for BCS class: low solubility/high permeability; for Solubility in water: physiological pHs (from pH 1.5-8.0)
Source text: Studies of these compounds indicate that these compounds are BCS class II compounds (low solubility/high permeability). […] Poor bioavailability is also often accompanied by highly variable patient blood levels and unpredictable dose/therapeutic effects due to erratic absorption of the drug by the patient. Accordingly, a need exists for compositions and methods to increase the solubility of these compounds.

Row | SMILES | BCS class [1] | Solubility in water [1] | Bioavailability (Bioavailability)
1 | COc1ncnc(C2CC2)c1-c1ncc2cnn(Cc3ccc(-n4nc(C(F)(F)F)cc4C)cc3)c2n1 [Formula III, 6-(4-cyclopropyl-6-methoxypyrimidin-5-yl)-1-(4-(5-methyl-3-(trifluoromethyl)-1H-pyrazol-1-yl)benzyl)-1H-pyrazolo[3,4-d] pyrimidine] | BCS class II | poorly soluble | low bioavailability
2 | COc1ncnc(C2CC2)c1-c1ncc2cnn(Cc3ccc(-c4nc(C(F)(F)F)cn4C(C)C)cc3)c2n1 [Formula II, 6-(4-cyclopropyl-6-methoxypyrimidin-5-yl)-1-(4-(1-isopropyl-4-(trifluoromethyl)-1H-imidazol-2-yl)benzyl)-1H-pyrazolo[3,4-d]pyrimidine] | BCS class II | poorly soluble | low bioavailability
